Data set [1] in a line: Protein binding in human at 0.4 g, po. Format: ADME. As to conditions: in vivo, read-out: PB (converted).
In another data set the test system is Enterococcus. In words: Antibacterial activity against Enterococcus by agar diffusion method. The data set is classed as functional. (Agar diffusion results depend on both activity and mobility in agar.)
Another data set relates to Streptococcus pyogenes. Nature of the data set: Antibacterial activity against Streptococcus pyogenes by agar diffusion method. Format: functional.
Data set [2] in a line: Cmax in human at 0.4 g, po. Further details: dose 0.4 g, route oral. As to conditions: in vivo. Format: ADME.
The next data set relates to Bacteroides fragilis. Nature of the data set: Antibacterial activity against Bacteroides fragilis by agar diffusion method. Format: functional.
The test system of the next data set is Haemophilus influenzae. Nature of the data set: Antibacterial activity against Haemophilus influenzae with horse blood by agar diffusion method. The data set is classed as functional.
Data set [3] can be described thus: Half life in human at 0.4 g, po. The data set is classed as ADME. As to conditions: in vivo.
Another data set concerns Escherichia coli. In words: Antibacterial activity against Escherichia coli by agar diffusion method. The data set is classed as functional.
In a further data set the test system is Clostridium perfringens. Nature of the data set: microbe, parasite or virus in culture.
The next data set relates to Pseudomonas aeruginosa. Nature of the data set: Antibacterial activity against Pseudomonas aeruginosa by agar diffusion method. The data set is classed as functional.
The nature of data set [4]: AUC in human at 0.4 g, po. The data set is classed as ADME. To be noted: in vivo.
A further data set has as its system Staphylococcus aureus. In words: Antibacterial activity against Staphylococcus aureus by agar diffusion method. The data set is classed as functional.
A further data set has as its system Streptococcus pneumoniae. Nature of the data set: Antibacterial activity against Streptococcus pneumoniae by agar diffusion method. The data set is classed as functional.
Another data set has as its system Klebsiella. In words: Antibacterial activity against Klebsiella by agar diffusion method. The data set is classed as functional.
Data set [5] can be described thus: Half life in human at 0.4 g, po bid. The data set is classed as ADME, organism-based. As to conditions: in vivo.
Data set [6] can be described thus: Protein binding in human at 0.4 g, po bid. The data set is classed as ADME, organism-based. To be noted: in vivo, read-out: PB (converted).
A short description of data set [7]: Cmax in human at 0.4 g, po bid. Format: ADME, organism-based. Further details: dose 0.4 g, route oral. As to conditions: in vivo.
Data set [8] is described as follows: AUC in human at 0.4 g, po bid. As to conditions: in vivo. Format: ADME, organism-based.
Data set [9] can be described thus: Toxicity in human assessed as gastrointestinal effect.
For the next data set, the species on record is Homo sapiens. In words: Phototoxicity in human. Format: organism-based. As to conditions: in vivo.
A short description of data set [10]: Cardiotoxicity in human QTc prolongation. Format: toxicity.
The nature of data set [11]: Toxicity in human assessed as arthralgia effect.

SMILES strings stand for the structures. In brackets after ≈: the same amount, converted by molar mass.

The term Cmax denotes the peak of the concentration-time curve. The half-life is the time in which the quantity being followed falls by half. In general, AUC refers to concentration integrated over time. Low readings indicate less exposure, high ones more exposure. As to `C[C@H]1NCc2cc(-c3ccc4c(=O)c(C(=O)O)cn(C5CC5)c4c3OC(F)F)ccc21` [GARENOXACIN], the fraction unbound in data set [1] was 0.13. Moreover, the MIC90 in the data set with Enterococcus is 0.5 µg/mL (≈ 1.17 µM); against Streptococcus pyogenes it was 0.25 µg/mL (≈ 0.586 µM); against Bacteroides fragilis, 1 µg/mL (≈ 2.35 µM); in the data set on Haemophilus influenzae it was 0.03 µg/mL (≈ 0.0704 µM); with Escherichia coli, 0.06 µg/mL (≈ 0.141 µM); in the data set on Clostridium perfringens, 0.25 µg/mL (≈ 0.586 µM). In addition, the MIC90 in the data set on Pseudomonas aeruginosa was found to be 16 µg/mL (≈ 37.5 µM); in the data set with Staphylococcus aureus, 0.03 µg/mL (≈ 0.0704 µM); with Streptococcus pneumoniae, 0.12 µg/mL (≈ 0.281 µM); with Klebsiella, 0.5 µg/mL (≈ 1.17 µM). The same molecule returned a Cmax in data set [2] of 5800 ng/mL. Further, the half-life in [3] was 15 h. For the same molecule, the AUC in data set [4] turned out to be 59000 ng·h/mL.
For `COc1c(N2CCNC(C)C2)c(F)cc2c(=O)c(C(=O)O)cn(C3CC3)c12` (stereo not given) [GATIFLOXACIN], the fraction unbound in data set [1] is 0.8. Further, the MIC90 with Enterococcus stood at 1 µg/mL (≈ 2.66 µM); against Streptococcus pyogenes, 0.25 µg/mL (≈ 0.666 µM); against Bacteroides fragilis, 1 µg/mL (≈ 2.66 µM); against Haemophilus influenzae, 0.03 µg/mL (≈ 0.0799 µM); in the data set on Escherichia coli it was 0.06 µg/mL (≈ 0.16 µM); with Clostridium perfringens, 0.5 µg/mL (≈ 1.33 µM). The MIC90 is 4 µg/mL (≈ 10.7 µM) in the data set on Pseudomonas aeruginosa, 0.25 µg/mL (≈ 0.666 µM) against Staphylococcus aureus, 0.25 µg/mL (≈ 0.666 µM) against Streptococcus pneumoniae and 0.25 µg/mL (≈ 0.666 µM) against Klebsiella. This molecule also gave a Cmax in data set [2] of 3800 ng/mL. The half-life in data set [3] was 12 h. The AUC in data set [4] was 33000 ng·h/mL.
In the case of `CCn1cc(C(=O)O)c(=O)c2cc(F)c(N3CCNC(C)C3)c(F)c21` (stereo not given) [LOMEFLOXACIN], the fraction unbound in data set [1] is 0.9. In addition, the MIC90 in the data set on Enterococcus came out at 4 µg/mL (≈ 11.4 µM); in the data set with Streptococcus pyogenes it was 4 µg/mL (≈ 11.4 µM); against Haemophilus influenzae it was 0.06 µg/mL (≈ 0.171 µM); against Escherichia coli it was 0.06 µg/mL (≈ 0.171 µM); against Pseudomonas aeruginosa it was 2 µg/mL (≈ 5.69 µM); against Staphylococcus aureus, 2 µg/mL (≈ 5.69 µM). For the same molecule, the MIC90 in the data set with Streptococcus pneumoniae stood at 4 µg/mL (≈ 11.4 µM); in the data set on Klebsiella it was 0.25 µg/mL (≈ 0.712 µM). In [2], the Cmax was determined as 2800 ng/mL. In data set [3], this molecule gave a half-life of 8 h. In addition, the AUC in data set [4] stood at 26000 ng·h/mL.
In the case of `CCn1cc(C(=O)O)c(=O)c2cc(F)c(N3CCNCC3)cc21` [NORFLOXACIN], in data set [5], the half-life was 3 h. In [6], the fraction unbound is 0.85. Further, the MIC90 in the data set on Enterococcus was 4 µg/mL (≈ 12.5 µM); in the data set with Streptococcus pyogenes, 4 µg/mL (≈ 12.5 µM); in the data set with Bacteroides fragilis, greater than 64 µg/mL; against Haemophilus influenzae, 0.06 µg/mL (≈ 0.188 µM); with Escherichia coli, 0.12 µg/mL (≈ 0.376 µM); in the data set with Pseudomonas aeruginosa, 2 µg/mL (≈ 6.26 µM). For the same molecule, the MIC90 against Staphylococcus aureus turned out to be 1 µg/mL (≈ 3.13 µM); in the data set on Streptococcus pneumoniae, 16 µg/mL (≈ 50.1 µM); against Klebsiella, 0.5 µg/mL (≈ 1.57 µM). This molecule showed a Cmax in data set [7] of 1500 ng/mL. In data set [8], this molecule gave an AUC of 10000 ng·h/mL.
Take `CC1COc2c(N3CCN(C)CC3)c(F)cc3c(=O)c(C(=O)O)cn1c23` (stereo not given) [OFLOXACIN]: the half-life in data set [5] was 6 h. In data set [6], the fraction unbound was 0.6. Further, the MIC90 in the data set with Enterococcus is 2 µg/mL (≈ 5.53 µM); against Streptococcus pyogenes, 2 µg/mL (≈ 5.53 µM); against Bacteroides fragilis, 16 µg/mL (≈ 44.3 µM); against Haemophilus influenzae, 0.03 µg/mL (≈ 0.083 µM); against Escherichia coli it was 0.12 µg/mL (≈ 0.332 µM); against Clostridium perfringens, 1 µg/mL (≈ 2.77 µM). The MIC90 in the data set with Pseudomonas aeruginosa came to 4 µg/mL (≈ 11.1 µM); with Staphylococcus aureus, 0.5 µg/mL (≈ 1.38 µM); in the data set with Streptococcus pneumoniae, 2 µg/mL (≈ 5.53 µM); with Klebsiella, 0.5 µg/mL (≈ 1.38 µM). This molecule also returned a Cmax in data set [7] of 4800 ng/mL. The molecule further showed an AUC in data set [8] of 64000 ng·h/mL.
On to `C[C@@H]1CN(c2c(F)c(N)c3c(=O)c(C(=O)O)cn(C4CC4)c3c2F)C[C@H](C)N1` [SPARFLOXACIN], for which the Activity in [9] is greater than 10%; in the data set filed under Homo sapiens, greater than 10%; in data set [10] it was 2.9%; in data set [11] it was 0.5 to 2%. The fraction unbound in [1] is 0.6. The MIC90 was 2 µg/mL (≈ 5.1 µM) against Enterococcus; 1 µg/mL (≈ 2.55 µM) against Streptococcus pyogenes; 4 µg/mL (≈ 10.2 µM) against Bacteroides fragilis; 0.03 µg/mL (≈ 0.0765 µM) against Haemophilus influenzae; 0.06 µg/mL (≈ 0.153 µM) with Escherichia coli; 0.25 µg/mL (≈ 0.637 µM) in the data set on Clostridium perfringens. For the same molecule, the MIC90 against Pseudomonas aeruginosa stood at 4 µg/mL (≈ 10.2 µM); against Staphylococcus aureus, 0.12 µg/mL (≈ 0.306 µM); against Streptococcus pneumoniae, 0.5 µg/mL (≈ 1.27 µM); against Klebsiella it was 0.5 µg/mL (≈ 1.27 µM). In data set [2], this molecule yielded a Cmax of 1000 ng/mL. The molecule also gave a half-life in data set [3] of 18 h. In data set [4], the AUC stood at 20000 ng·h/mL.

The values are drawn from ChEMBL document CHEMBL4354782, “Quinolone antibiotics” (Medchemcomm, 2019).
